pIC50: −log10 of the molar value.
Molecular target: T1, Vibrio fischeri luciferase (VfLuc) (Aliivibrio fischeri, UniProt P19907)
T1 construct: gene luxA; commercial Vibrio fischeri luciferase (Sigma-Aldrich L8507), with FMN reductases; with luciferase beta subunit (LuxB)
T1 sequence (P19907 1-354): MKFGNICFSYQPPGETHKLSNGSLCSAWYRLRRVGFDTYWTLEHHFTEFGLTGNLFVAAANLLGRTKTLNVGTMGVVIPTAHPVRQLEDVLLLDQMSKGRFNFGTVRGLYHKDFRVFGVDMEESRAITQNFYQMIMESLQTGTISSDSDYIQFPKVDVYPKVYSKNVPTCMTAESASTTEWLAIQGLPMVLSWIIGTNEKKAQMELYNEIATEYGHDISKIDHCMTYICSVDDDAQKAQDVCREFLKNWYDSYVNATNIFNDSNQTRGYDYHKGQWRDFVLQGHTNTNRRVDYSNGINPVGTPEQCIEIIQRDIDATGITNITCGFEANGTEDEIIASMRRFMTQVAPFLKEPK
T1 sequence (P19908 1-326 partner): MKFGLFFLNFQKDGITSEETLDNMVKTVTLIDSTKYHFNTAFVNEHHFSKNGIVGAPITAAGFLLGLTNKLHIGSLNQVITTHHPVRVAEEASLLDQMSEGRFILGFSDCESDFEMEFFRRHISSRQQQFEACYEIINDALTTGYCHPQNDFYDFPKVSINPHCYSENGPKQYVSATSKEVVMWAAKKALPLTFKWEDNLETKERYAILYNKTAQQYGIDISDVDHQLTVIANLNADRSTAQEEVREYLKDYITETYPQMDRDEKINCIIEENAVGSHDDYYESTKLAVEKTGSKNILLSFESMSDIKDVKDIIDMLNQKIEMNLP
Test: luminescence enzyme assay, coupled with FMN reductase, 12-point titration
Format: biochemical

In the case of COC(=O)/C=C/OC1c2ccccc2-c2ccccc21 [SAM461, (E)-Methyl 3-((9H-fluoren-9-yl)oxy)acrylate], the pIC50 was 3.72.
